Data taken from ChEMBL document CHEMBL1142828, “Trypanocidal activity of (-)-cubebin derivatives against free amastigote forms of Trypanosoma cruzi” (Bioorg Med Chem Lett, 2005).

How the values were obtained:
[1] = test system: Trypanosoma cruzi; experiment: Percentage delyse against amastigote forms of Y strain of Trypanosoma cruzi at 32 uM; format: functional
[2] = test system: Trypanosoma cruzi; experiment: Percentage delyse against amastigote forms of Y strain of Trypanosoma cruzi at 2 uM; format: functional
[3] = test system: Trypanosoma cruzi; experiment: Percentage delyse against amastigote forms of Y strain of Trypanosoma cruzi at 0.5 uM; format: functional
[4] = test system: Trypanosoma cruzi; experiment: Trypanocidal activity against amastigote forms of Y strain of Trypanosoma cruzi; format: functional, organism-based
[5] = test system: Trypanosoma cruzi; experiment: Percentage delyse against amastigote forms of Y strain of Trypanosoma cruzi at 8 uM; format: functional

SMILES | Delyse [1] [%] | Delyse [2] [%] | Delyse [3] [%] | IC50 [4] [µM] | Delyse [5] [%]
O=C1OC[C@H](Cc2ccc3c(c2)OCO3)[C@@H]1Cc1ccc2c(c1)OCO2 | 63.6 | 57 | 47.6 | 0.7 | 57.6
CC(=O)OC1OC[C@H](Cc2ccc3c(c2)OCO3)[C@@H]1Cc1ccc2c(c1)OCO2 (stereo not given in full) | 26.4 | 26 | 14.5 | ~15000 | 29
CN(C)CCOC1OC[C@H](Cc2ccc3c(c2)OCO3)[C@@H]1Cc1ccc2c(c1)OCO2 (stereo not given in full) | 57.8 | 55.4 | 33.6 | 4.7 | 50.8
c1ccc(COC2OC[C@H](Cc3ccc4c(c3)OCO4)[C@@H]2Cc2ccc3c(c2)OCO3)cc1 (stereo not given in full) | 68.8 | 38 | 37 | 5.7 | 46.8
O=C1OC[C@H](Cc2cc3c(cc2[N+](=O)[O-])OCO3)[C@@H]1Cc1cc2c(cc1[N+](=O)[O-])OCO2 | 48.5 | 48.7 | 34.6 | 95.3 | 38.9
O=C(Cn1ccnc1[N+](=O)[O-])NCc1ccccc1 [BENZNIDAZOLE] | 68 | 67 | 38.4 | 0.8 | 69
